Test results taken from article PMC8244912, “An oxytocin/vasopressin-related neuropeptide modulates social foraging behavior in the clonal raider ant” (PLoS Biology, 2021).
Entries after “also recorded” stand apart in the source; their conditions may differ.

What was measured:
[1] = biological target: O. biroi inotocin receptor (ObiroiItr_A) (Ooceraea biroi, UniProt A0A8F5LPT9); assay: Calcium flux, HEK293T cells transfected with full-length inotocin receptor (FLIPR Calcium 4); assay type: cell-based; conditions: for calcium response: HEK293T cells expressing full-length itcR; for HillSlope / LogEC50: variable slope
Text: RNA was isolated in TRIzol using the RNeasy (Qiagen, Germantown, Maryland, USA) purification kit with DNAse I (Qiagen) on-column digestion as in [52] from a sample that contained adult ants, larvae, and pupae and reverse-transcribed into cDNA. Full-length cDNAs for the O. biroi inotocin receptor were PCR amplified with primers 5′-[…]-3′ and 5′-[…]-3′, using the Easy-A high fidelity polymerase (Agilent, Santa Clara, California, USA) to generate PCR products with 5′-Kozak consensus sequences and 3′-A overhangs. The inotocin receptor cDNAs were cloned into the pcDNA3.3 TOPO TA cloning vector (Invitrogen, Waltham, Massachusetts, USA) following manufacturer’s guidelines.
The full-length inotocin receptor cDNA sequence that was cloned and used for calcium assays is ObiroiItr_A (GenBank MW660838; for protein sequence, see S1 Fig). We also tested splice variant ObiroiItr_H (GenBank MW660845; for protein sequence, see S1 Fig), which lacks TM4-7, for calcium activity.
Human embryonic kidney 293T (HEK293T) cells were cultured in DMEM supplemented with 10% FBS at 37°C in a tissue culture incubator with a humidified atmosphere containing 5% CO2. Cells were plated in 10-cm dishes, and, when they reached 60% to 70% confluency, they were transfected with a pcDNA3.3 vector containing approximately 1 ng of inotocin receptor cDNA or an empty vector as a control using Lipofectamine 2000. Cells were transfected directly into poly-D-lysine–coated 384-well plates and incubated for 48 hours at 37°C. Subsequently, cells were incubated with FLIPR Calcium 4 Assay kit dye for 1 hour in the incubator. The fluorescence (excitation, 488 nm; emission, 530 nm) of the wells was recorded using a Flex Station II 384 (Molecular Devices, San Jose, California, USA), […], in sextuplicate (see below for inotocin peptide synthesis). We calculated the EC50 values using Prism (GraphPad Software version 8) nonlinear regression, 4-parameter logistic curve fit. Dose curves were repeated at least 3 times on independently prepared samples and different days.

HEK293 cells = conditions: oxytocin: ref Burger, Fahrenholz et al. 1999, Ma, Hashii et al. 2013, vasopressin: ref Burger; cited from earlier work
Text: (§1) We have edited this last sentence of the abstract to: “Inotocin signaling thereby likely contributes to behavioral individuality an ...

beetle inotocin receptor = conditions: CHO cells; ref Stafflinger, Hansen et al. 2008; cited from earlier work
Text: as §1

itcR from Lasius ants = conditions: CHO cells; ref Koto, Motoyama et al. 2019; cited from earlier work
Text: as §1

[2] = system: untransfected HEK293 cell membranes; conditions: ref Jasper, Harrell et al. 1995; cited from earlier work
Text: as §1

[3] = system: HEK293T cells transfected with an empty vector; assay: Calcium flux, HEK293T cells transfected with empty vector; assay type: cell-based, human; conditions: ATP 10 μM (cell health control)
Protocol: Human embryonic kidney 293T (HEK293T) cells were cultured in DMEM supplemented with 10% FBS at 37°C in a tissue culture incubator with a humidified atmosphere containing 5% CO2. Cells were plated in 10-cm dishes, and, when they reached 60% to 70% confluency, they were transfected with a pcDNA3.3 vector containing approximately 1 ng of inotocin receptor cDNA or an empty vector as a control using Lipofectamine 2000. Cells were transfected directly into poly-D-lysine–coated 384-well plates and incubated for 48 hours at 37°C. Subsequently, cells were incubated with FLIPR Calcium 4 Assay kit dye for 1 hour in the incubator. The fluorescence (excitation, 488 nm; emission, 530 nm) of the wells was recorded using a Flex Station II 384 (Molecular Devices, San Jose, California, USA), and a dose curve of inotocin (0 to 3 μM) was applied to the wells, in sextuplicate (see below for inotocin peptide synthesis). We calculated the EC50 values using Prism (GraphPad Software version 8) nonlinear regression, 4-parameter logistic curve fit. Dose curves were repeated at least 3 times on independently prepared samples and different days. Results were consistent across replicates, and example dose curves are shown in Fig 1C and S4A Fig. Control experiments are shown in S2–S5 Figs.

Chain of O. biroi inotocin receptor (ObiroiItr_A) (A0A8F5LPT9 entry or part of it): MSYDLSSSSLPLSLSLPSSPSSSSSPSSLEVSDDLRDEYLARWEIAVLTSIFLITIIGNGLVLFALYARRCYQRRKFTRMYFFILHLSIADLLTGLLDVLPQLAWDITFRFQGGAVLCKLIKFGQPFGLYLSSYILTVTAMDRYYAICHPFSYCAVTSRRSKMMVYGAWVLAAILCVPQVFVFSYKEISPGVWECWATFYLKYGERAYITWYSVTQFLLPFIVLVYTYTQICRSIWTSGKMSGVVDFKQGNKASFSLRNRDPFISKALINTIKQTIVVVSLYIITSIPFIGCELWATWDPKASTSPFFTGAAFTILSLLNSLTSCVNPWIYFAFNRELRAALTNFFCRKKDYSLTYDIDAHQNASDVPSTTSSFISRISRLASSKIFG

Compound	calcium response [1]	EC50 [1]	calcium responses of untransfected and mock transfected HEK293 cells (HEK293 cells)	binding of radiolabeled peptide [2]	also measured
NRPCGLTCI [scrambled control peptide, scrambled version of inotocin (…) as negative control with identical amino acid composition]	No Ca^2+ influx is detected				
CC[C@H](C)[C@@H]1NC(=O)[C@H](Cc2ccc(O)cc2)NC(=O)[C@@H](N)CSSC[C@@H](C(=O)N2CCC[C@H]2C(=O)N[C@@H](CC(C)C)C(=O)NCC(N)=O)NC(=O)[C@H](CC(N)=O)NC(=O)[C@H](CCC(N)=O)NC1=O [oxytocin]	also elicit calcium responses; also recorded: also produced calcium transients	0.835 µM	do not show calcium	do not bind	HillSlope ([1]; S4B Fig, oxytocin, SE 0.05165, 95% CI 0.5075 to 0.7181): 0.6128; LogEC50 ([1]; S4B Fig, oxytocin, X data log of Molar_Oxytocin, SE 0.0661, 95% CI -6.213 to -5.944): -6.078; receptor response (beetle inotocin receptor): responds; receptor response (itcR from Lasius ants): respond
N=C(N)NCCC[C@H](NC(=O)[C@@H]1CCCN1C(=O)[C@@H]1CSSC[C@H](N)C(=O)N[C@@H](Cc2ccc(O)cc2)C(=O)N[C@@H](Cc2ccccc2)C(=O)N[C@@H](CCC(N)=O)C(=O)N[C@@H](CC(N)=O)C(=O)N1)C(=O)NCC(N)=O [AVP]		12.6 µM	do not show calcium	do not bind	calcium response ([1]; listed as vasopressin): also elicit calcium responses; also recorded: also produced calcium transients; LogEC50 ([1]; S4C Fig, AVP, SE 0.09024, 95% CI -5.083 to -4.715): -4.899; HillSlope ([1]; S4C Fig, AVP, SE 0.1917, 95% CI 0.6094 to 1.391): 1
Nc1ncnc2c1ncn2[C@@H]1O[C@H](COP(=O)(O)OP(=O)(O)OP(=O)(O)O)[C@@H](O)[C@H]1O [ATP, reference compound]					calcium response [3]: are healthy and show calcium responses
